Experimental findings from US8791132B2, “Compounds and methods for treatment of hypertension” (Medivation Technologies, Inc., priority 2011, dated 2014) are described below.

Where two headings read alike, the source gives them in different places.

Assay [1] addresses T1, human recombinant adrenergic α2B receptor (Homo sapiens, UniProt P18089).
T1 construct: expressed in transfected cells; host or cells: CHO-K1
T1 sequence (P18089 1-450): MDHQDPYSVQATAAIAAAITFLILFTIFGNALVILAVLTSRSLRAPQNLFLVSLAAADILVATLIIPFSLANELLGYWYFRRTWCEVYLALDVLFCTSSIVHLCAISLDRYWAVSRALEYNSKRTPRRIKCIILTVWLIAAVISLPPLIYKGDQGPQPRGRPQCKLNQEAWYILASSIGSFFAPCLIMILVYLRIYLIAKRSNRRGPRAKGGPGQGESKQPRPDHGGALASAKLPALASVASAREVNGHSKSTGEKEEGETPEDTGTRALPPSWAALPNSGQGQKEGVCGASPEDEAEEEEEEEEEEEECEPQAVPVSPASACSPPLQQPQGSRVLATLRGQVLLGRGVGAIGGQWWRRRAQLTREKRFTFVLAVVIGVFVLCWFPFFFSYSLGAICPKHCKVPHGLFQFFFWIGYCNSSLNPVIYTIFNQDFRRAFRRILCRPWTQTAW
The assay is described as follows: Radioligand binding, adrenergic α2B ([3H]Rauwolscine). Put shortly:
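Membranes from CHO-K1 cells expressing human recombinant α2B, in 50 mM Tris-HCl pH 7.4, 12.5 mM MgCl2, 1 mM EDTA, 0.2% BSA, incubated with compound and 2.5 nM [3H]Rauwolscine, 60 min, 25 °C.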

Assay [2] concerns the target T2, human recombinant adrenergic α2A receptor (Homo sapiens, UniProt P08913).
T2 construct: expressed in transfected cells; host or cells: insect Sf9 cells
T2 sequence (P08913 1-465): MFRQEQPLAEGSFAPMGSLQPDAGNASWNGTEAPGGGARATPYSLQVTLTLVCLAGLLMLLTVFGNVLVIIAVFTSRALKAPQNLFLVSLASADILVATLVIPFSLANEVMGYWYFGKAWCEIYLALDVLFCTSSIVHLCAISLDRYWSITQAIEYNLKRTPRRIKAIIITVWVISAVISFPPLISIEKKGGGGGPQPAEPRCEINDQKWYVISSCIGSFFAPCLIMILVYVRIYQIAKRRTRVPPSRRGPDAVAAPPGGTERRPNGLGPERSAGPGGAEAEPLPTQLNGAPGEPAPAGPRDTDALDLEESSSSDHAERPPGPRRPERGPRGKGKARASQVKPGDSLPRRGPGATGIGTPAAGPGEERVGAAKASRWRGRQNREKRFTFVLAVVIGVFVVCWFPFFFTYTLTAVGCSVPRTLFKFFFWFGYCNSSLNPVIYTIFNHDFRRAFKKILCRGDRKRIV
The assay is described as follows: Radioligand binding, adrenergic α2A ([3H]MK-912). The procedure, abridged:
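Receptor expressed in insect Sf9 cells, assayed in 50 mM Tris-HCl pH 7.4 with 12.5 mM MgCl2 and 2 mM EDTA. Compounds incubated with 1 nM [3H]MK-912 for 60 min at 25 °C; nonspecific binding defined with 10 μM WB-4101. Filter-bound radioactivity counted; values are percent inhibition of specific binding.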

The target in assay [3] is T3, human recombinant adrenergic α1D receptor (Homo sapiens, UniProt P25100).
T3 construct: expressed in transfected cells; host or cells: HEK-293
T3 sequence (P25100 1-572): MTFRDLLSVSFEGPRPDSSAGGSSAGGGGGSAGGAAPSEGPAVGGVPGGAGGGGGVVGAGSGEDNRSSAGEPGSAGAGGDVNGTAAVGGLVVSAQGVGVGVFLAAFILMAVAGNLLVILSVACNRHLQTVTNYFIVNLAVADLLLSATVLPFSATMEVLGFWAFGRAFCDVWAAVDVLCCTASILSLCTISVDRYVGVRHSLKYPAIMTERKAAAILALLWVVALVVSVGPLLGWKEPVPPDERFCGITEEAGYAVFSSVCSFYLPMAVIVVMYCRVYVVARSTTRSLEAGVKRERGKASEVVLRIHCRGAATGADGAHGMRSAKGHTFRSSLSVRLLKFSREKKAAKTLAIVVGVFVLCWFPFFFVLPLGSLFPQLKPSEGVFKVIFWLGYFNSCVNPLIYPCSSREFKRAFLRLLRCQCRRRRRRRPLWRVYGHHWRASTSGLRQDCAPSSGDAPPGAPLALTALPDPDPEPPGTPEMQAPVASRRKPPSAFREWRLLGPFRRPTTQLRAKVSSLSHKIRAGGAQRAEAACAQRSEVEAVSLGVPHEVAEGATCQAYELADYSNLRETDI
As to the kind of experiment: Radioligand binding, adrenergic α1D ([3H]Prazosin). The method, then: Compounds were incubated with 0.6 nM [3H]Prazosin for 60 min at 25° C. Non-specific binding was estimated in the presence of 10 μM phentolamine. Receptor proteins were filtered and washed, the filters were then counted to determine [3H]Prazosin specifically bound. […] Biochemical assay results are presented as the percent inhibition of specific binding in Table B1.

Assay [4] has as its target T4, rat adrenergic α1B receptor (Rattus norvegicus, UniProt P15823).
T4 construct: rat adrenergic α1B receptor obtained from Wistar Rat liver; from tissue; host or cells: Wistar rat liver
T4 sequence (P15823 1-515): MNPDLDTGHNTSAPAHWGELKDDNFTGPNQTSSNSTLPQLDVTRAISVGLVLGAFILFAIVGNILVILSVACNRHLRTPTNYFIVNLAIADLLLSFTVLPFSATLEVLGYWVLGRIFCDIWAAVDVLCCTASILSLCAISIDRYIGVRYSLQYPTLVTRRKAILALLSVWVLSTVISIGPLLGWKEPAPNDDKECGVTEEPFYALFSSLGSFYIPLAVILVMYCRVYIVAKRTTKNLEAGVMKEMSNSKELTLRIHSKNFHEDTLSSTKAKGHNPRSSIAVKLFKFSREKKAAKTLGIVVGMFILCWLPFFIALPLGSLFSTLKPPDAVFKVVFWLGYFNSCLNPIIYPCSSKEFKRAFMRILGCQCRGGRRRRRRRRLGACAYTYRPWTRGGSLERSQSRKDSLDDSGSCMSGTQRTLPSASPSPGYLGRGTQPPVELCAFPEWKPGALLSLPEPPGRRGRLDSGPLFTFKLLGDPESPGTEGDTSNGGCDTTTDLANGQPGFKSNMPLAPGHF
As to the kind of experiment: Radioligand binding, adrenergic α1B ([3H]Prazosin). The procedure, abridged: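 Incubation ran 60 min at 25 °C in Tris-HCl buffer (50 mM, pH 7.4, 0.5 mM EDTA) with Wistar rat liver α1B receptor. 10 μM phentolamine set non-specific binding.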

[5] abbreviates: read-out: Percentage inhibition of ligand binding, Adrenergic α2B (0.1 μM), compound at 0.1 μM, [3H]Rauwolscine, repeat datapoints each shown.
The mark [6] stands for this setting: read-out: Percentage inhibition of ligand binding, Adrenergic α1D (0.1 μM), compound at 0.1 μM, [3H]Prazosin, repeat datapoints each shown.
Setting [7] is: read-out: Percentage inhibition of ligand binding, Adrenergic α2A (0.1 μM), compound at 0.1 μM, [3H]MK-912, repeat datapoints each shown.
Where [8] appears, read: read-out: Percentage inhibition of ligand binding, Adrenergic α1B (0.1 μM), compound at 0.1 μM, [3H]Prazosin, repeat datapoints each shown.
Where [9] appears, read: 0.1 μM compound, read-out: Percentage inhibition of ligand binding, Adrenergic α2B.
Setting [10] is: 0.1 μM compound, read-out: Percentage inhibition of ligand binding, Adrenergic α2A.
Setting [11] is: 0.1 μM compound, read-out: Percentage inhibition of ligand binding, Adrenergic α1D.
Where [12] appears, read: 0.1 μM compound, read-out: Percentage inhibition of ligand binding, Adrenergic α1B.

A word on the inhibition: it is the change of the read-out against control, counted positive when it falls. As to `Cc1ccc(C(C)(O)Cn2c3c(c4cc(Cl)ccc42)CN(C)CC3)cn1` (stereo not drawn) [compound 93], the inhibition at 0.1 µM in assay [1] (setting [5]) stood at 87%; in assay [3] (setting [6]) it was 6%. Also, in assay [2] (compound at 0.1 μM, [3H]MK-912, repeat datapoints each shown, 0.1 µM), the “Percentage inhibition of ligand binding, Adrenergic α2A (0.1 μM)” value turned out to be 21%. For the same compound, in assay [4] (compound at 0.1 μM, [3H]Prazosin, repeat datapoints each shown, 0.1 µM), the “Percentage inhibition of ligand binding, Adrenergic α1B (0.1 μM)” value is 25%.

As to `CN1CCc2c(c3ccccc3n2CC(C)(O)c2ccncc2)C1` (stereo not drawn) [II-171], the inhibition at 0.1 µM in assay [1] (setting [5]) amounted to 94%; in assay [2] (setting [7]), 96%; in assay [3] (setting [6]) it was 55%; in assay [4] (setting [8]) it was 95%.

For `Cc1ccc2c(c1)c1c(n2CC(C)(F)c2ccncc2)CCN(C)C1` (stereo not drawn) [compound 102], the inhibition at 0.1 µM amounted to 77% in assay [1] (setting [5]), 21% in assay [2] (setting [7]), 21% in assay [3] (setting [6]) and 40% in assay [4] (setting [8]).

With `Cc1ccc2c(c1)c1c(n2C2=C(c3ccnn3C)CCC2)CCN(C)C1` [compound 309, 2,8-dimethyl-5-(2-(1-methyl-1H-pyrazol-5-yl)cyclopent-1-enyl)-2,3,4,5-tetrahydro-1H-pyrido[4,3-b]indole], the inhibition at 0.1 µM in assay [1] (setting [9]) stood at 37%; in assay [2] (setting [10]), 57%; in assay [3] (setting [11]), 40%; in assay [4] (setting [12]) it was 23%.

As to `C/C(=C/n1c2c(c3cc(C)ccc31)CN(C)CC2)c1ccc(F)cc1F` [compound 258], the inhibition at 0.1 µM in assay [1] (setting [9]) is 99%; in assay [2] (setting [10]), 94%; in assay [3] (setting [11]), 74%; in assay [4] (setting [12]) it was 93%.

As for `Cc1ccc(CCn2c3c(c4c(C)ccc(C)c42)CN(C)CC3)cn1` [II-18], the inhibition at 0.1 µM in assay [1] (setting [9]) is -15%; in assay [2] (setting [10]), 14%; in assay [3] (setting [11]) it was -9%; in assay [4] (setting [12]), -7%.

`C/C(=C/n1c2c(c3cc(C)ccc31)CN(C)CC2)c1cc(C)cs1` [compound 291]: the inhibition at 0.1 µM in assay [1] (setting [9]) came out at 105%; in assay [2] (setting [10]), 102%; in assay [3] (setting [11]), 85%; in assay [4] (setting [12]), 88%.

`C/C(=C\n1c2c(c3cc(C)ccc31)CN(C)CC2)c1ccnn1C` [compound 108]: the inhibition at 0.1 µM in assay [1] (setting [5]) turned out to be 88%; in assay [2] (setting [7]), 20%; in assay [3] (setting [6]), 21%; in assay [4] (setting [8]), 42%.

Regarding `C/C(=C/n1c2c(c3cc(C)ccc31)CN(C)CC2)c1cnn(C)c1` [compound 275], the inhibition at 0.1 µM came to 94% in assay [1] (setting [9]), 51% in assay [2] (setting [10]), 61% in assay [3] (setting [11]) and 75% in assay [4] (setting [12]).

For the compound `C/C(=C\n1c2c(c3cc(C)ccc31)CN(C)CC2)c1ccc2[nH]cnc2c1` [compound 282], the inhibition at 0.1 µM came out at 101% in assay [1] (setting [9]), 75% in assay [2] (setting [10]), 30% in assay [3] (setting [11]) and 33% in assay [4] (setting [12]).

Consider `C/C(=C\n1c2c(c3cc(C)ccc31)CN(C)CC2)c1cnn(C)c1` [compound 109], for which the inhibition at 0.1 µM in assay [1] (setting [5]) was 69%; in assay [2] (setting [7]), 25%; in assay [3] (setting [6]), 21%; in assay [4] (setting [8]), 13%.

For the compound `Cc1ccc2c(c1)c1c(n2CC(C)c2ccncc2)CCN(C)C1` (stereo not drawn) [compound 255], the inhibition at 0.1 µM in assay [1] (setting [9]) was 96%; in assay [2] (setting [10]), 63%; in assay [3] (setting [11]), 43%; in assay [4] (setting [12]), 55%.

Consider `C/C(=C/n1c2c(c3cc(C)ccc31)CCN(C)CC2)c1ccccc1F` [compound 230], for which the inhibition at 0.1 µM is 93% in assay [1] (setting [5]), 87% in assay [2] (setting [7]), 58% in assay [3] (setting [6]) and 94% in assay [4] (setting [8]).

With `COc1ccc(/C(C)=C/n2c3c(c4cc(Cl)ccc42)CCN(C)CC3)cc1` [compound 246], the inhibition at 0.1 µM in assay [1] (setting [9]) worked out at 101%; in assay [2] (setting [10]), 86%; in assay [3] (setting [11]) it was 68%; in assay [4] (setting [12]), 82%.

For `C=C(n1ccnc1)n1c2c(c3cc(C)ccc31)CN(C)CC2` [compound 118, 5-(1-imidazol-1-yl-vinyl)-2,8-dimethyl-2,3,4,5-tetrahydro-1H-pyrido[4,3-b]indole], the inhibition at 0.1 µM in assay [1] (setting [5]) is 60%; in assay [2] (setting [7]) it was 19%; in assay [3] (setting [6]), 7%; in assay [4] (setting [8]) it was 35%.

`C/C(=C\n1c2c(c3cc(Cl)ccc31)CCN(C)CC2)c1ccccc1F` [compound 233]: the inhibition at 0.1 µM was 103% in assay [1] (setting [5]), 80% in assay [2] (setting [7]), 28% in assay [3] (setting [6]) and 73% in assay [4] (setting [8]).

In the case of `C/C(=C\n1c2c(c3cc(Cl)ccc31)CCN(C)CC2)c1cccc(F)c1` [compound 248], the inhibition at 0.1 µM worked out at 95% in assay [1] (setting [9]), 90% in assay [2] (setting [10]), 31% in assay [3] (setting [11]) and 76% in assay [4] (setting [12]).

Turning to `C/C(=C/n1c2c(c3cc(Cl)ccc31)CCN(C)CC2)c1cccc(F)c1` [compound 247], the inhibition at 0.1 µM in assay [1] (setting [9]) was found to be 89%; in assay [2] (setting [10]) it was 96%; in assay [3] (setting [11]) it was 81%; in assay [4] (setting [12]), 95%.
